Data taken from publication PMC2904697, “A Screen for Kinetochore-Microtubule Interaction Inhibitors Identifies Novel Antitubulin Compounds” (PLoS ONE, 2010).
pIC50: −log10 of the molar value. Several values for one entry are separate records, joined by “and”; a condition that tells them apart may be missing. Equal entries are not always repeated.

Key:
[1] = biological target: recombinant human Ndc80 kinetochore complex binding to taxol-stabilized microtubules; test: Ndc80^488 complex-MT binding assay (fluorescence microscopy / TIRF); conditions: for pIC50: total internal reflection fluorescence microscopy, Ndc80^488 complex 0.1 µmol/l, taxol-stabilized MTs; for Effect on binding of the Ndc80^488 complex to taxol-stabilized MTs: compound 50 µmol/l, wide-field fluorescence microscopy
From the text: To screen compound libraries for molecules inhibiting binding of the outer kinetochore Ndc80 complex (Ndc80, Nuf2, Spc24, Spc25) to MTs, we used a fluorescence microscopy-based in vitro approach (Fig. 1). First, the recombinant human Ndc80 construct, used to crystallize the complex, was produced in Escherichia coli using a bicistronic plasmid from which the Nuf2-Spc24 and Ndc80-Spc25 peptides were generated (Fig. 1A). Following their intracellular assembly, the complex was purified from E. coli cell extract based on the GST tag at the N-terminus of Nuf2. The complex was released in solution with PreScission Protease (its recognition sequence was introduced between the GST tag and the NUF2 coding sequence) and was separated from contaminants by gel filtration chromatography (Fig. 1A). The high degree of purity of the preparation was confirmed by SDS-PAGE analysis and coomassie staining, which identified only both peptides (Fig. 1B). Next, the Ndc80 complex was fluorescently labeled with the Alexa Fluor 488 C5-maleimide (next named the Ndc80^488 complex) and was separated from unreacted fluorophore by gel filtration chromatography. The final preparation was highly pure as evidenced by gel filtration analysis and detection at 519 nm (emission maximum of the Alexa Fluor 488 dye) and at 280 nm (intrinsic protein fluorescence) (Fig. 1B). Next, the Ndc80^488 complex (0.1 µmol/l) was incubated with 10,200 compounds (comprising the Chembridge DIVERset and a compound collection from the Univ. Rome) at a starting concentration of 50 µmol/l. Binding (or lack thereof) of the complex to rhodamine-labeled taxol-stabilized MTs (0.1 µmol/l) was scored by wide-field fluorescence microscopy (Fig. 1C; images in Fig. 2A). […] Total internal reflection fluorescence microscopy was used to establish the IC50 value of the compound, which was measured to be ∼20 µmol/l (Fig. 2C).
Recombinant human Ndc80 complex (Ndc80^Bonsai complex) was produced in Escherichia coli using a bicistronic expression plasmid (Fig. 1A, [12]). Following transcription from the TAC promoter/operator by induction with 0.4 mmol/l IPTG (20°C, 15 h), GST-Nuf2-Spc24 and Ndc80-Spc25 polypeptides were generated, which dimerized intracellulary into the GST-Ndc80 complex. The complex was isolated from E. coli cell extract following incubation with glutathione beads. The complex was released from the beads with PreScission Protease (GE Healthcare Life Sciences) and contaminants were removed by gel filtration chromatography (Superdex 200, GE Healthcare Life Sciences). On average 4 mg of Ndc80 complex were obtained from 1 liter of cell culture. Next, 1 mg Ndc80 complex was labeled with 0.1 mg Alexa Fluor 488 C5-maleimide fluorophore (Invitrogen) at a 1.5-2 stoichiometry. The fluorescent complex (Ndc80^488 complex) was separated from unreacted fluorophore by gel filtration chromatography (Fig. 1B) and was then used to screen for compounds inhibiting Ndc80^488 complex-MT binding (Fig. 1C). The Ndc80^488 complex is fully functional as it is recruited to and acts at kinetochores when injected into prometaphase HeLa cells.
MTs were polymerized (30 min, 37°C) from a 1∶10 mixture of rhodamine-labeled:unlabeled bovine brain αβ-tubulin (Cytoskeleton) in BRB-80 buffer (80 mmol/l PIPES pH 6.8, 1 mmol/l MgCl2, 1 mmol/l EGTA) and were then stabilized with 20 µmol/l taxol. The Ndc80^488 complex (0.1 µmol/l) was incubated with 100 µmol/l compound (30 min, 24°C) in 96-well polypropylene plates (Eppendorf). The 10,000 compound DIVERset library (Chembridge) and 200 compounds from the Department of Medicinal Chemistry and Technologies, University of Rome La Sapienza were used in the screen. Next, the MTs (100 nmol/l) were added to the compound-Ndc80^488 complex solution in a 1∶1 v/v ratio. After incubation (10 min, 24°C), the reaction mixtures were transferred to 96-well glass-bottom plates (Greiner Bio-one). […]

[2] = test system: MTs assembled from αβ-tubulin; test: Depolymerization of non-stabilized MTs in vitro (turbidity at 350 nm); format: biochemical; conditions: for Fold difference between concentration inhibiting tubulin polymerization and that needed to disassemble MTs: Fig. 5B versus Fig. 5A
Procedure: To quantify the antitubulin activity of compound B, we added 1–50 µmol/l compound B to 10 µmol/l αβ-tubulin. […] For this purpose, MTs were assembled from 10 µmol/l αβ-tubulin; 5 min into the reaction compound B was added in concentrations up to 200 µmol/l. MT depolymerization was tracked as a decrease in turbidity at 350 nm (Fig. 5B).
Polymerization of 10 µmol/l αβ-tubulin in BRB-80 buffer was monitored turbidimetrically at 350 nm for 15 min in a temperature-controlled spectrophotometer (37°C; SpectraMax Plus^384, Molecular Devices). To probe the effect of a compound on MT stability the molecule was added 5 min after initiation of tubulin assembly. The decrease in protein turbidity (350 nm) resulting from MT depolymerization was followed for 15 min at 37°C [13]. Quantitative comparisons of drug effects on tubulin assembly were also examined in 0.8 M glutamate with a 15 min drug-tubulin preincubation prior to the addition of GTP [14]. Tubulin assembly was monitored for 20 min at 30°C in Beckman DU7400/7500 spectrophotometers, and the compound concentration inhibiting tubulin assembly by 50% was determined.

SMILES | pIC50 [1] | Fold more active than compound B in the Ndc80^488 complex-MT binding assay ([1]; versus compound B) [fold] | Ability to depolymerize MTs, fold higher than that of compound B ([2]; non-stabilized MTs in vitro) [fold] | Ability to depolymerize MTs, higher than that of nocodazole ([2]; non-stabilized MTs in vitro) [%] | Effect on binding of the Ndc80^488 complex to taxol-stabilized MTs [1] | Fold difference between concentration inhibiting tubulin polymerization and that needed to disassemble MTs [2] | Drug:tubulin molar ratio at which MT stability is affected / MT depolymerization induced ([2]; MTs from 10 µmol/l αβ-tubulin, compound added 5 min into the reaction)
CCSCCOC(=O)c1[nH]c2c(c1C)C(=O)C[C@@H](c1ccco1)C2 [A8] | ~6.00 and 6.00 | ~20 | 12 | 10 | – | – | –
Cc1c(C(=O)OCC2CCCO2)[nH]c2c1C(=O)CC(c1ccco1)C2 (stereo not shown) [compound B, 6-furan-2-yl-3-methyl-4-oxo-4,5,6,7,-tetrahydro-1H-indole-2-carboxylic acid tetrahydro-furan-2-ylmethyl ester] | ~4.70 and 4.70 | – | – | – | active | at least 40 fold | –
COC(=O)Nc1nc2ccc(C(=O)c3cccs3)cc2[nH]1 [nocodazole, reference compound] | – | – | – | – | did not prevent | 10 fold | 1
